Reference: ChEMBL document CHEMBL3885881, “DrugMatrix”

Species on record: Rattus norvegicus
Test: DrugMatrix - Regimen: Daily Repeat
Type: toxicity, organism-based, Sprague-Dawley
Design: regimen Daily Repeat, gender Male, age 6-8 weeks
Settings: in vivo, po, route oral GAVAGE, vehicle 100 % WATER; for ABSOLUTE BASOPHIL / ABSOLUTE EOSINOPHIL / ABSOLUTE LYMPHOCYTE / ABSOLUTE MONOCYTE / ABSOLUTE SEGMENTED NEUTROPHIL / BASOPHIL / EOSINOPHIL / ERYTHROCYTE COUNT / HEMATOCRIT / HEMOGLOBIN / LEUKOCYTE COUNT / LYMPHOCYTE / MEAN CORPUSCULAR HEMOGLOBIN / MEAN CORPUSCULAR HEMOGLOBIN CONCENTRATION / MONOCYTE / NEUTROPHIL / NUCLEATED RED BLOOD CELLS / PLATELET COUNT: tissue Blood; for ALANINE AMINOTRANSFERASE / ALBUMIN / ALKALINE PHOSPHATASE / BLOOD UREA NITROGEN / CARBON DIOXIDE / CHLORIDE / CHOLESTEROL / CREATINE PHOSPHOKINASE / CREATININE / GLUCOSE / LACTATE DEHYDROGENASE / LIPASE / PHOSPHORUS / POTASSIUM / SODIUM / TOTAL BILIRUBIN / TOTAL PROTEIN / URIC ACID: tissue Plasma
[1] = 0 mg/kg, 72 h, dose level Control, time 3 day
[2] = 0 mg/kg, 120 h, dose level Control, time 5 day
[3] = 15 mg/kg, 72 h, dose level Low, time 3 day

## Cc1ccc(NC(=O)c2ccc(CN3CCN(C)CC3)cc2)cc1Nc1nccc(-c2cccnc2)n1 [IMATINIB]
[1]
  ABSOLUTE BASOPHIL: 0 CELLS/uL
  ABSOLUTE EOSINOPHIL: 151.33 CELLS/uL
  ABSOLUTE LYMPHOCYTE: 10599.5 CELLS/uL
  ABSOLUTE MONOCYTE: 109.5 CELLS/uL
  ABSOLUTE SEGMENTED NEUTROPHIL: 1139.67 CELLS/uL
  BASOPHIL: 0%
  EOSINOPHIL: 0.83%
  ERYTHROCYTE COUNT: 5.54 x10E6/uL
  HEMATOCRIT: 35.35%
  HEMOGLOBIN: 13.22 G/DL
  LEUKOCYTE COUNT: 12 x10E3/uL
  LYMPHOCYTE: 89%
  MEAN CORPUSCULAR HEMOGLOBIN: 23.88 pg
  MEAN CORPUSCULAR HEMOGLOBIN CONCENTRATION: 37.4 G/DL
  MONOCYTE: 1%
  NEUTROPHIL: 9.17%
  NUCLEATED RED BLOOD CELLS: 0 /100WBC
  PLATELET COUNT: 1333.33 x10E3/uL
  ALANINE AMINOTRANSFERASE: 53.17 u/L
  ALBUMIN: 4.32 G/DL
  ALKALINE PHOSPHATASE: 404.33 u/L
  BLOOD UREA NITROGEN: 15.67 mg/dL
  CARBON DIOXIDE: 27.33 mmol/L
  CHLORIDE: 101.83 MEQ/L
  CHOLESTEROL: 68.67 mg/dL
  CREATINE PHOSPHOKINASE: 276.17 u/L
  CREATININE: 0.18 mg/dL
  GLUCOSE: 163.5 mg/dL
  LACTATE DEHYDROGENASE: 144.67 u/L
  LIPASE: 8.83 u/L
  PHOSPHORUS: 11.72 mg/dL
  POTASSIUM: 5.99 MEQ/L
  SODIUM: 143.57 MEQ/L
  TOTAL BILIRUBIN: 0.2 mg/dL
  TOTAL PROTEIN: 6.1 G/DL
  URIC ACID: 1.38 mg/dL
[2]
  ABSOLUTE BASOPHIL: 0 CELLS/uL
  ABSOLUTE EOSINOPHIL: 248.67 CELLS/uL
  ABSOLUTE LYMPHOCYTE: 12977.83 CELLS/uL
  ABSOLUTE MONOCYTE: 19.67 CELLS/uL
  ABSOLUTE SEGMENTED NEUTROPHIL: 1137.17 CELLS/uL
  BASOPHIL: 0%
  EOSINOPHIL: 1.67%
  ERYTHROCYTE COUNT: 5.82 x10E6/uL
  HEMATOCRIT: 36.35%
  HEMOGLOBIN: 13.58 G/DL
  LEUKOCYTE COUNT: 14.38 x10E3/uL
  LYMPHOCYTE: 90.5%
  MEAN CORPUSCULAR HEMOGLOBIN: 23.32 pg
  MEAN CORPUSCULAR HEMOGLOBIN CONCENTRATION: 37.42 G/DL
  MONOCYTE: 0.17%
  NEUTROPHIL: 7.67%
  NUCLEATED RED BLOOD CELLS: 0 /100WBC
  PLATELET COUNT: 1337.67 x10E3/uL
  ALANINE AMINOTRANSFERASE: 48.5 u/L
  ALBUMIN: 4.32 G/DL
  ALKALINE PHOSPHATASE: 354.33 u/L
  BLOOD UREA NITROGEN: 16 mg/dL
  CARBON DIOXIDE: 27.33 mmol/L
  CHLORIDE: 100.33 MEQ/L
  CHOLESTEROL: 68 mg/dL
  CREATINE PHOSPHOKINASE: 325.17 u/L
  CREATININE: 0.23 mg/dL
  GLUCOSE: 172 mg/dL
  LACTATE DEHYDROGENASE: 254.83 u/L
  LIPASE: 8.33 u/L
  PHOSPHORUS: 12.17 mg/dL
  POTASSIUM: 6.28 MEQ/L
  SODIUM: 143.57 MEQ/L
  TOTAL BILIRUBIN: 0.18 mg/dL
  TOTAL PROTEIN: 6.12 G/DL
  URIC ACID: 1.78 mg/dL
[3]
  ABSOLUTE BASOPHIL: 0 CELLS/uL
  ABSOLUTE EOSINOPHIL: 119.67 CELLS/uL
  ABSOLUTE LYMPHOCYTE: 6343 CELLS/uL
  ABSOLUTE MONOCYTE: 102.67 CELLS/uL
  ABSOLUTE SEGMENTED NEUTROPHIL: 568 CELLS/uL
  BASOPHIL: 0%
  EOSINOPHIL: 1.67%
  ERYTHROCYTE COUNT: 5.21 x10E6/uL
  HEMATOCRIT: 33.27%
  HEMOGLOBIN: 12.53 G/DL
  LEUKOCYTE COUNT: 7.13 x10E3/uL
  LYMPHOCYTE: 89.33%
  MEAN CORPUSCULAR HEMOGLOBIN: 24.03 pg
  MEAN CORPUSCULAR HEMOGLOBIN CONCENTRATION: 37.7 G/DL
  MONOCYTE: 1.33%
  NEUTROPHIL: 7.67%
  NUCLEATED RED BLOOD CELLS: 0 /100WBC
  PLATELET COUNT: 1102.33 x10E3/uL
  ALANINE AMINOTRANSFERASE: 49.67 u/L
  ALBUMIN: 4.23 G/DL
  ALKALINE PHOSPHATASE: 362.67 u/L
  BLOOD UREA NITROGEN: 15.33 mg/dL
  CARBON DIOXIDE: 28.33 mmol/L
  CHLORIDE: 102 MEQ/L
  CHOLESTEROL: 64.67 mg/dL
  CREATINE PHOSPHOKINASE: 198.67 u/L
  CREATININE: 0.21 mg/dL
  GLUCOSE: 165 mg/dL
  LACTATE DEHYDROGENASE: 128.33 u/L
  LIPASE: 8 u/L
  PHOSPHORUS: 11 mg/dL
  POTASSIUM: 5.66 MEQ/L
  SODIUM: 144.5 MEQ/L
  TOTAL BILIRUBIN: 0.2 mg/dL
  TOTAL PROTEIN: 6.03 G/DL
  URIC ACID: 0.97 mg/dL
